What is called CC50 is the concentration giving 50% cytotoxicity. A higher CC50 goes with better tolerance by the cells.

For one compound, IC90, IC50 and CC50 results are on record in US20230192622A1, “ANTI-SARS-COV-2 DRUG” (ONCOLYS BIOPHARMA, INC., priority 2020, published 2023).

One series deals with SARS-CoV-2 (WK-521). In words: microbe, parasite or virus in culture. The following applies: Severe acute respiratory syndrome coronavirus 2, HEK-293T, 72 h, HEK293T/ACE2 cells, MOI=0.1, 3 days, qPCR of viral RNA in supernatant. Type of series: cell-based. For orientation: Real-time PCR tracks product formation cycle by cycle.
A further series deals with HEK293T/ACE2 cells. The settings on record: human, 3 days.

As for `CCCCn1c(=O)c2ccc(OCC(C)=O)cc2c2cc(C(O)(C(F)(F)F)C(F)(F)F)ccc21` [NR-93], the IC90 in the series on SARS-CoV-2 (WK-521) (read-out: IC50(μM) (footnote defines IC90: 90% inhibitory concentration)) came to 3.27 µM. In the series on SARS-CoV-2 (WK-521) (read-out: IC50: 50% inhibitory concentration (reduces viral production and replication by 50%)), the IC50 was 0.243 µM. Further, in the series on HEK293T/ACE2 cells, the CC50 is over 20 µM.
